Patent publication US8258188B2 (priority 2004, dated 2012)
“And” between values parts separate entries of the source, which are not always exact repeats. Equal entries are not always repeated. Where two headings read alike, the source gives them in different places. Marks after values point to notes of the source that are not given here.

What was measured:
thymus = conditions: 0.6 g punicic acid/100 g food; least square mean ± SEM
Protocol: (§1) A total of twenty-two C57BL6 mice were used in Experiment 2. All mice were born on Nov. 23, 2003, weaned on Dec. 16, 2003 and fed the experimental diets from Dec. 19, 2003 to Jan. 15, 2004. […] Mice were weighed on a weekly basis. Mice were euthanized. Blood was collected from each mouse for generating serum, which was stored at −20° C. Thymus, spleen and colonic lymph nodes were harvested, weighed and collected in cRPMI in sterile conditions. Colon and liver specimens were collected in RNA later (Ambion Inc., Austin, Tex.) and frozen at −80° C. for gene expression analysis. Brain, kidney, liver, colon and ileum were also collected in a 10% buffered neutral formalin solution and processed as described in experiment 1 for histological evaluation. The remaining portion of the carcass was stored in 50-mL, conical tubes and frozen at −20° C. for body composition and fatty acid analysis. All specimens were generally labeled with the following information: 1) mouse number; 2) date collected; 3) experiment number; 4) type of solvent; and 5) tissue type. Tissue slides were examined in an Olympus microscope (Olympus America Inc., Dulles, Va.). Images were captured using the FlashBus FBG software (Integral Technologies, Indianapolis, Ind.) and processed in Adobe Photoshop Elements 2.0 (Adobe Systems Inc., San Jose, Calif.).
(§2) Spleens, thymuses and colonic lymph nodes were collected in complete RPMI on ice. Single-cell suspensions were obtained from each tissue by gently disrupting the tissue between two frosted ends of two glass slides on a petri dish containing 3 mL of cRPMI. The single-cell suspension was transferred from the petri dish to a 15-mL polypropylene tube (Fisher, Atlanta, Ga.) and washed by centrifuging in an Eppendorf 5810 R centrifuge (Westbury, N.Y.) at 200×g for 5 minutes at 4° C. The supernatant was discarded by decantation of the tube. The cell pellet was broken by gently tapping the tube against a solid surface. The total numbers of spleenocytes, thymocytes and colonic lymph node lymphocytes in each mouse were enumerated in a Z1 Coulter Single Particle Counter (Miami, Fla.). Briefly, 10-mL of isoton II diluent solution (Beckman Coulter, Miami, Fla.) were added into a counting vial, followed by 40 μL of the cell suspension, 4 drops of Zapaglobin (Beckman Coulter, Miami Fla.), and 10 additional mL of the isoton solution. The volume in which the cells were resuspended was assessed using a 5-mL, sterile pipette. The concentration of cells/mL and the total volume in each tube were used to determine the total amount of cells in each tissue and mouse.
(§3) A description of the uses of flow cytometry was provided in Experiment 1. Splenocyte suspensions were freed of erythrocytes by osmotic lysis (adding 4.5 mL of sterile deionized water for 1 to 2 seconds and then adding 0.5 mL of 10× PBS to make 1× PBS solution). Cells were washed again by centrifuging in an Eppendorf 5810 R centrifuge (Westbury, N.Y.) at 200×g for 5 minutes at 4° C. The supernatant was discarded by decantation of the tube. The cell pellet was broken by gently tapping the tube against a solid surface. FACS buffer (1 mL) was added in each tube. Splenocytes, thymocytes and colonic lymph node-derived mononuclear cells were enumerated in a Z1 Coulter Single Particle Counter (Miami, Fla.), adjusted to 2×10^6 cells/mL. Splenocytes, thymocytes, and colonic lymph nodes were analyzed for expression of CD4, CD8, CD3, TCRalphabeta, TCRgammadelta and CD19 molecules by flow cytometry as previously described (Bassaganya-Riera et al. 2001; Bassaganya-Riera et al. 2002; Bassaganya-Riera et al. 2003). Briefly, a volume of 100 μl of the splenocyte, thymocyte, and colonic lymph node lymphocyte suspension was added in to a round-bottomed microtiter plate (Becton Dickinson, Lincoln Park, N.J.) and stained with 50 μl of the primary antibody solutions in FACS buffer.

colonic lymph nodes = conditions: 0.6 g punicic acid/100 g food, least square mean ± SEM
Protocol: as §1, §2, §3

spleen = conditions: 0.6 g punicic acid/100 g food; least square mean ± SEM
Protocol: as §1, §2, §3

[1] = 0.6 g punicic acid/100 g food, 38 days, oral
Source text: All specimens were generally labeled with the following information: 1) mouse number; 2) date collected; 3) experiment number; 4) type of solvent; and 5) tissue type.

[2] = 105-day dietary supplementation, 0.6 g punicic acid/100 g food
[3] = system: C57BL6 mice challenged with 2.5% DSS; assay: DSS colitis model of experimental IBD (Experiment 1); format: in vivo
[4] = system: C57BL6 mice fed regular or high fat diets; conditions: day 78, intraperitoneal D-glucose after 14 hours fast
Source text: (§4) In Western countries, Metabolic Syndrome or Syndrome X (i.e., diabetes, obesity, cardiovascular disease, hypertension and hyperlipidemia) is on a steady rise. […] A total of fifty C57BL6 mice were used in experiment 4. […] These diets are defined as regular diets and were formulated to be isocaloric between treatment groups. […] The high fat diets were also formulated to be isocaloric between treatment groups. The remaining mice within each group (n=5) were fed the regular diets. On day 78 of the experiment, mice were killed, blood was collected and immediately analyzed for fasting glucose concentrations by using the Accu-Check Instant Plus System (Roche Diagnostics Corporation, Indianapolis, Ind.) or stored for subsequent analysis of insulin concentrations in plasma. Abdominal white adipose tissue and interscapular brown adipose tissue were collected, weighed and stored at −80° C. for RNA analyses. Liver, lungs, kidneys, pancreas and heart were examined for macroscopic abnormalities (gross lesions), fixed in phosphate-buffered formalin (10%) and processed as described in experiment 1 for histological evaluation. All specimens were generally labeled with the following information: 1) mouse number; 2) date collected; 3) experiment number; 4) type of solvent; and 5) tissue type.
A glucose tolerance test was conducted on day 78 of the experiment. Animals were fasted overnight (14 hours).

[5] = punicic acid-supplemented diets, 78 days
Source text: as §4

[6] = system: C57BL6 mice fed regular or high fat diets; conditions: day 78, least squares mean
Source text: as §4
Serum insulin concentrations were determined by using commercially available enzyme-linked immunosorbent assay kits (Linco Research, St. Charles, Mo.).
Data were analyzed by analysis of variance (ANOVA). The ANOVA was performed by using the general linear model procedure of SAS (SAS Institute Inc., Cary, N.C.) as previously described (Bassaganya-Riera et al. 2004). Differences with probability value (P<0.05) were considered significant.

[7] = system: splenocytes stimulated with VR-1469 influenza virus antigens
[8] = system: lymph node-derived lymphocytes
Protocol: (§5) cRPMI medium was prepared as shown above. Wells of 96-well flat-bottomed microtiter plates (Becton Dickinson, Lincoln Park, N.J.) were seeded with 2×10^5 mononuclear cells in a total volume of 200 μl per well. Wells contained either concanavalin A (5 μg/ml, Con-A; Sigma), or medium alone (non-stimulated). Plates were incubated for 5 days at 37° C. in 5% CO2 humidified atmosphere. After 5 days, 0.5 μCi of methyl-[^3H] thymidine (specific radioactivity 6.7 Ci mmol^−1; Amersham Life Science, Arlington Heights, Ill.) in 10 μl of medium was added to each well and plates incubated for an additional 20 h. Well contents were harvested onto fiber filters with a PHD cell harvester (Skatron Instruments Inc., Sterling, Va.) and incorporated radioactivity measured by liquid scintillation counting (Beckman Instruments, Schaumburg, Ill.). Samples were run in triplicate and stimulation indices (SI) calculated by dividing counts min^−1 of stimulated wells by counts min^−1 from non-stimulated wells.
(§6) Statistical analysis was performed by analysis of variance (ANOVA). […] Differences with a probability value (P<0.05) were considered statistically significant.

splenocytes = system: splenocytes
Protocol: as §5, §6

[9] = 7-day challenge with 2.5% DSS, grade 0 to 4, least square mean ± SEM
[10] = concanavalin A 5 μg/ml, cells from mice fed 0.6 g punicic acid/100 g food
[11] = counts of Con A-stimulated wells divided by counts of non-stimulated wells
[12] = non-stimulated, cells from mice fed 0.6 g punicic acid/100 g food

## CCCC\C=C/C=C/C=C\CCCCCCCC(=O)O [punicic acid]
thymus
  thymus: CD4^+ thymocytes: 2.51 ± 0.28
  thymus: CD4^+CD8^+ thymocytes: 63.25 ± 8.73
  thymus: CD8^+ thymocytes: 1.34 ± 0.18
  thymus: Lymphocytes: 69.18 ± 9.56 ×10^6/mL
  thymus: TCR αβ^+ thymocytes: 9.12 ± 1.21
  thymus: Weight: 845.00 ± 4.68 mg
Colonic lymph nodes
  colonic lymph nodes: CD3^+ T cells: 10.24 ± 0.85
  colonic lymph nodes: CD4^+ T cells: 6.65 ± 0.58
  colonic lymph nodes: CD8^+ T cells: 4.53 ± 0.41
  colonic lymph nodes: CD19^+ T cells: 5.98 ± 0.72
  colonic lymph nodes: Lymphocytes: 18.64 ± 1.53 ×10^6/mL
  colonic lymph nodes: TCR αβ^+T cells: 11.78 ± 1.08
  colonic lymph nodes: Weight: 261.66 mg
Colonic lymph nodes; listed as Punicic Acid
  colonic lymph nodes: Weight: 261.66 ± 3.28 mg
spleen
  spleen: CD3^+ T cells: 30.05 ± 1.78
  spleen: CD4^+ T cells: 17.04 ± 1.10
  spleen: CD8^+ T cells: 12.72 ± 0.73
  spleen: CD19^+ T cells: 102.22 ± 5.42
  spleen: TCR αβ^+T cells: 33.12 ± 1.93
  spleen: Total # of lymphocytes: 144.21 ± 7.13 ×10^6/mL
  spleen: Weight: 884.54 ± 3.30 mg
[1]
  adverse effects throughout the duration of the study: No adverse effects were observed
  macroscopic and histologic analysis of liver, kidneys and brain: no abnormalities
[2]
  H&E histology of brain, kidneys, liver, heart and lungs: no microscopic lesions
  adverse effects or clinical signs throughout the study: No negative adverse effects
[3]; 0.6 g punicic acid/100 g food, 2.5% DSS challenge
  start of rectal bleeding, on average: 7 day of the DSS challenge
[3]; 0.6 g punicic acid/100 g food, by day 6 of the 2.5% DSS challenge
  mortality rate associated with colonic inflammation: 0%
[3]; [9]
  Histological score: Crypt Damage: 0.33 ± 0.26
  Histological score: Epithelial Erosion: 0.00 ± 0.00
  Histological score: Inflammatory Cell Infiltration: 0.50 ± 0.17
  Histological score: Metaplasia/Hyperplasia: 0.50 ± 0.28
  Histological score: Mucosal Thickness: 1.83 ± 0.24
  Histological score: Vascular Changes: 0.50 ± 0.35
[3]; diet fed 32 days prior to 7-day DSS challenge (2.5%, wt/vol)
  colitis-associated disease: improved
[3]; following the DSS challenge
  average colon weights: 0.153 grams
  average macroscopic score in colons (scale from 0 to 3): 1.4
  histopathological examination of H&E-stained slides of colon: no major lesions
[4]; high fat diets
  glucose tolerance versus control diet: normalizes impaired glucose tolerance
[4]; regular diets
  glucose tolerance versus control diet: not different
[5]
  fatty liver or enlarged viscera: not observed
[6]; High Fat Diets
  Brown adipose tissue (interscapular) weight: 0.124 g
  White adipose tissue (abdominal) weight: 0.830^b g
  plasma fasting Glucose: 219.5^b mg/dL
  plasma fasting Insulin: 1.229^b ng/mL
[6]; Regular Diets
  Brown adipose tissue (interscapular) weight: 0.138 g
  White adipose tissue (abdominal) weight: 0.801^b g
  plasma fasting Glucose: 121.40^b mg/dL
  plasma fasting Insulin: 0.669^b ng/mL
[7]
  Relative Proliferation Index B cells: 1.15 ± 0.63 and 1.16 ± 0.27
  Relative Proliferation Index CD4^+ T cells: 0.68 ± 0.48 and 1.10 ± 0.63
[8]; [10]
  Counts/minute lymph nodes (cRPMI & ConA): 929.06 ± 161.10 Counts/minute
[8]; [11]
  Stimulation index lymph nodes: 22.40 ± 3.61
[8]; [12]
  Counts/minute lymph nodes (cRPMI): 43.12 ± 3.76 Counts/minute
splenocytes; [10]
  Counts/minute spleen (cRPMI & ConA): 1905.27 ± 254.42 Counts/minute
splenocytes; [11]
  Stimulation index spleen: 25.20 ± 3.16
splenocytes; [12]
  Counts/minute spleen (cRPMI): 73.17 ± 10.96 Counts/minute
